Measurements published in patent publication US20250213652A1, “COMPOSITIONS AND THEIR USE IN METHODS FOR TREATING INTESTINAL INFLAMMATION” (REVOLO BIOTHERAPEUTICS LIMITED, priority 2022, published 2025).

How the values were obtained:
S100A8/A9 = assay: TMT quantitative proteomics of monocyte cell surface, S100A8/A9; format: cell-based; conditions: human monocytes (n=4), 1 hour
Source text: (§1) FIG. 10B provides a bar graph showing the effects of IRL201805 on CD69 ligands, galectin-1 (Gal-1) and S100A8/A9, as detected by TMT quantitative proteomics.
(§2) The potential ligands, Gal-1 and S100A8/A9, are known to bind to CD69.43 In order to examine the expression of and influence the ability of T cells to sustain a Treg phenotype, the present study investigated the effects of 1805 on the expression of Gal-1 and S100A8/A9 in APCs (monocytes). Human monocytes isolated from healthy individuals (n=4) were exposed to 1805 for 1 hour at levels of both Gal-1 and S100A8/A9 proteins.
(§3) The abundance of Gal-1 and S100A8/A9 protein at the cell surface were detected by tandem mass tag (TMT) quantitative proteomics.

JAK3 = assay: RNAseq gene transcript levels, JAK3; format: cell-based, human; conditions: 20 μg/mL, 24 hour post treatment
Method: (§4) FIG. 9A-B illustrates the effects of 20 µg/mL IRL201805 on JAK-STAT signaling pathway at the transcript and protein level. FIG. 9A provides the RNAseq analysis of gene transcript levels of key signaling genes involved in CD69 activation. FIG. 9B provides the immunoblot of p-STAT5 levels in cell lysates from untreated and IRL1805 treated PBMCs.
(§5) In the present study, the effects of IRL201805 on JAK-STAT signaling pathway were assessed at the transcript and protein level. PBMCs were isolated from a healthy subject and treated for 24 h with 20 μg/mL IRL201805.
(§6) RNAseq analysis was used to assess gene transcript levels of key signaling genes involved in CD69 activation.

CD69 [1] = assay: Surface expression of CD69 and CD39 on Tregs from PBMCs, flow cytometry; format: cell-based, human; conditions: 20 μg/mL, 20-72 h at 37° C., PBMCs from two healthy donors
Method: FIG. 8 depicts the mean fluorescent intensity of surface expression of CD69 and CD39 on Tregs from peripheral blood mononuclear cells (PBMCs) cultured with 20 μg/mL IRL201805 for 20-72 h at 37° C.
In the present study, PBMCs were isolated from two healthy donors. PBMCs were then incubated with IRL201805 (20 μg/mL) for 20-72 h at 37° C. Flow cytometry was used to measure mean fluorescent intensity and assess surface expression of CD69 and CD39 on Tregs from the PBMCs.

STAT5A = assay: RNAseq gene transcript levels, STAT5A; format: cell-based, human; conditions: monocytes from three healthy individuals
Method: as §4, §5, §6

CD69 [2] = assay: Surface CD154 and CD69 activation markers on T-lymphocytes from PBMCs; format: cell-based, human; conditions: 20 μg/mL, 20 hours at 37° C., PBMCs from four healthy donors, p=0.008
Source text: FIG. 11A-C provides bar graphs showing the effects of IRL201805 on the expression of surface CD154 and CD69 activation markers on T-lymphocytes from PBMCs: Tregs (FIG. 11A); effector T cells (Teffs; FIG. 11B); and CD8 T cells (FIG. 11C). Results are from PBMCs isolated from four healthy donors. Mean±SD shown. P=values represent paired sample t-test. NS=not significant.
The present study assessed the effects of 1805 on the expression of surface CD154 and CD69 activation markers on T-lymphocytes from PBMC of Tregs, Teffs, and CD8 T cells. PBMCs isolated from four healthy donors were cultured with or without 20 μg/mL IRL201805 for 20 hours at 37° C.

p-STAT5 [3] = assay: Colon punch biopsies from IBD patients, p-STAT5 by flow cytometry; format: cell-based, human; conditions: data not shown
Method: (§7) In the present study, punch biopsies (2 mm^2) of inflamed and non-inflamed colon tissues were obtained from each consenting IBD patient with hospital ethical approval, as illustrated in FIG. 6A-E. Tissue biopsies were subsequently incubated for 12-14 hours with or without IRL201805 (20 μg/mL) and assessed for CD69+/CD39+ regulatory T cells (Tregs).

SOCS3 = assay: RNAseq gene transcript levels, SOCS3; format: cell-based, human; conditions: 20 μg/mL, 24 hour post treatment
Method: as §4, §5, §6

S100A9 = assay: Mass spec analysis of S100A9 post-translational modification in monocytes; format: cell-based; conditions: human monocytes
Source text: as §1, §2

galectin-1 (Gal-1) = assay: TMT quantitative proteomics of monocyte cell surface, Gal-1; format: cell-based; conditions: human monocytes (n=4), 1 hour
Source text: as §1, §2, §3

STAT5B = assay: RNAseq gene transcript levels, STAT5B; format: cell-based, human; conditions: monocytes from three healthy individuals
Method: as §4
In the present study, the effects of IRL201805 on JAK-STAT signaling pathway were assessed at the transcript and protein level. […]
as §6

PBMCs = assay: p-STAT5 status and FoxP3 in T cell subsets of treated PBMCs (Table 4); format: cell-based
Source text: In Tregs, CD69 is thought to promote CD39 surface expression, FoxP3 transcription, and STAT5 phosphorylation leading to STAT3 inhibition. The present study assessed the effects of IRL1805 on p-STAT5. […] Treatment of PBMCs with IRL201805 led to changes in p-STAT5 status of CD4/CD8 T cells and increased 3-fold the level of FoxP3 transcription (see Table 4).

RAG2−/− mice = assay: CD4+CD45RBhigh T cell adoptive transfer murine model of intestinal inflammation; format: in vivo
Source text: In the present study, intestinal inflammation is initiated with syngeneic splenic CD4^+CD45RB^high T cell adoptive transfer into T and B cell deficient recipient mice.^37 The CD4^+CD45RB^high T cell population contains mainly naïve T cells primed for activation that are capable of inducing chronic small bowel and colonic inflammation. This animal model allows the modification of key experimental variables, including both innate and adaptive immune cell populations, to answer biologically relevant questions relating to disease pathogenesis. […]
From Day 21 until the end of the experiment on Day 49, animals are monitored daily for clinical signs of colitis to include: bodyweight loss, loose stools and/or diarrhea. On Day 49, animals are culled, the colon dissected out, and colon weight and length measured. […]
From Day 21 until the end of the experiment, animals are monitored daily for clinical signs of colitis to include bodyweight loss, loose stools and/or diarrhea.
(§8) At termination, colon from half the animals in each group are transferred in tissue fixative, then processed for paraffin-embedding in a ‘swiss roll’ format. These samples are sectioned and stained with hematoxylin and eosin (H&E) and up to two sections per animal are scored by a qualified histopathologist according to a semi-quantitative scoring system. […]

[4] = tested on: CD69+/CD39+ regulatory T cells (Tregs); assay: Colon punch biopsies from IBD patients, flow cytometry of CD69+/CD39+ Tregs; format: cell-based, human; conditions: 20 μg/mL, 12-14 hours, inflamed colonic tissue compared to non-inflamed tissue from the same patient
Method: FIG. 6A-E provides an outline of the procedure used to assess the effects of human primary immune cells ex vivo within inflamed and non-inflamed colon tissue treated with IRL201805.
as §7

p-STAT5 [5] = assay: Immunoblot of p-STAT5 in PBMC cell lysates; format: cell-based, human; conditions: 20 μg/mL, 24 hours, compared to untreated PBMCs
Method: as §4, §5
Immunoblotting of PBMC cell lysates with recombinant anti-STAT5 (phospho Y694) antibody [E208] (ab32364) (Abcam, ab32364) was used to assess the p-STAT5 levels in from untreated and IRL1805 treated PBMCs.

C57-bl/6 mice = assay: Dextran sulphate sodium (DSS)-induced murine model of ulcerative colitis; format: in vivo; conditions: 5% DSS
Method: In the present study, the DDS murine model of UC will be used to evaluate the efficacy of BiP analogs such as IRL201805 (SEQ ID NO:1).
Adult C57-bl/6 mice are randomly allocated to experimental groups and allowed to acclimatize for one week. From Day-2, treatments are administered in accordance with the administration schedule below. On Day 0, drinking water is replaced by a 5% dextran sulphate sodium (DSS) in water (excluding group 1 which remains on normal drinking water throughout). Animals are given ad libitum access to the 5% DSS solution. From Day 0 until the end of the experiment on Day 7, animals are monitored daily for clinical signs of colitis to include: bodyweight loss, loose stools and/or diarrhea and presence of occult or gross blood in the stools. […]
From Day 0 until the end of the experiment, animals are monitored daily for clinical signs of colitis to include bodyweight loss, loose stools and/or diarrhea and presence of blood, occult or gross, in the stools.
as §8

STAT3 phosphorylation = STAT3 phosphorylation in human lymphocytes (previous unpublished data); format: cell-based

Question: Which “S100A8/A9 expression on the cell surface” value (S100A8/A9) does the source give for “IRL201805: a modified analog of GRP78 (BiP analog, SEQ ID NO:1) being developed for the treatment of autoimmune disease” here?
Answer: Its value is “not altered”.

Question: What about the “increase of JAK3 gene transcript level” value (JAK3) of the same substance?
Answer: The value was “approximately 10 fold”.

Question: What about the “duration of sustained CD69 expression on CD154- cells” value (CD69 [1]) of the same substance?
Answer: Its value is “at least 72 h”.

Question: What about the “transcript levels of STAT5A” value (STAT5A) of the same substance?
Answer: Its value is “did not affect”.

Question: And the “increase of CD69 on the cell surface of Tregs” value (CD69 [2])?
Answer: The value was 2 fold.

Question: What about the “p-STAT5 in subsets of immune cells by flow cytometry” value (p-STAT5 [3]) of the same substance?
Answer: The value was “increased p-STAT5”.

Question: What about the “increase of SOCS3 gene transcript level” value (SOCS3) of the same substance?
Answer: The value was “approximately 10 fold”.

Question: And the “increase of phosphorylation of S100A9” value (S100A9; 1 hour)?
Answer: Its value is 58%.

Question: And the “trimethylation post-translational modifications on threonine 113 on S100A9” value (S100A9; mass spec)?
Answer: The value was “increased trimethylation”.

Question: And the “Gal-1 expression on the cell surface” value (galectin-1 (Gal-1))?
Answer: Its value is “not altered”.

Question: And the “transcript levels of STAT5B” value (STAT5B)?
Answer: Its value is “did not affect”.

Question: And the “p-STAT5 in subsets of immune cells” value (PBMCs; PBMCs)?
Answer: Its value is “increased p-STAT5”.

Question: And the “increase of the level of FoxP3 transcription” value (PBMCs; PBMCs, versus untreated)?
Answer: The value was 3 fold.

Question: What about the “% CD4+ve” value (PBMCs; treated PBMCs) of the same substance?
Answer: Its value is 7.1%.

Question: What about the “% CD8+ve” value (PBMCs; treated PBMCs) of the same substance?
Answer: Its value is 3.2%.

Question: What about the “% FoxP3 + Tregs” value (PBMCs; treated PBMCs) of the same substance?
Answer: Its value is 0.9%.

Question: And the “CD25hi/CD127lo Tregs” value (PBMCs; treated PBMCs)?
Answer: Its value is 3.2.

Question: What about the “clinical signs of colitis (bodyweight loss, loose stools and/or diarrhea)” value (RAG2−/− mice; IV from Day 21, dose TBC) of the same substance?
Answer: The value was “significant reduction in clinical signs of colitis”.

Question: What about the histopathology severity scores (RAG2−/− mice; T cell transfer colitis, colon sections H&E, Day 49) of the same substance?
Answer: Its histopathology severity scores is “significant reduction in severity scores”.

Question: What about the “increase in double positive CD69+/CD39+ Tregs” value [4] of the same substance?
Answer: The value was 20%.

Question: And the “p-STAT5 levels by immunoblot” value (p-STAT5 [5])?
Answer: The value was “increased levels”.

Question: What about the “clinical signs of colitis (bodyweight loss, loose stools and/or diarrhea)” value (C57-bl/6 mice; 1 mg/kg IV Day −2, 0, 3, 6) of the same substance?
Answer: Its value is “significant reduction in clinical signs of colitis”.

Question: And the histopathology severity scores (C57-bl/6 mice; 1 mg/kg IV, colon sections H&E, Day 7)?
Answer: Its histopathology severity scores is “significant reduction in severity scores”.

Question: How did the STAT3 phosphorylation (STAT3 phosphorylation) turn out when binding immunoglobulin protein [BiP] was run?
Answer: Its STAT3 phosphorylation is “inhibit STAT3 phosphorylation”.
